Results taken from ChEMBL document CHEMBL3774350, “The discovery of 2-substituted phenol quinazolines as potent RET kinase inhibitors with improved KDR selectivity” (Eur J Med Chem, 2016).

Experiments:
[1] = Cytotoxicity in mouse BA/F3 cells after 48 hrs by Cell titre glo-based luminescence assay; details: BaF3, 48 h
[2] = Aqueous solubility of compound by LC-MS/MS analysis; assay type: physicochemical

SMILES | IC50 [1] | solubility [2]
COc1cc2ncnc(Nc3cccc(O)c3)c2cc1OC | > 10 µM | 
COc1cc2ncnc(Nc3cccc(O)c3O)c2cc1OC | > 10 µM | 
COc1cc2ncnc(Nc3cc(F)cc(O)c3C)c2cc1OC | > 10 µM | 
COc1cc2ncnc(Nc3c(F)ccc(O)c3Cl)c2cc1OC | > 10 µM | 
COc1cc2ncnc(Nc3cccc(O)c3Br)c2cc1OC | > 10 µM | 
COc1cc2ncnc(Nc3c(Cl)ccc(O)c3F)c2cc1OC | > 10 µM | 
COc1cc2ncnc(Nc3c(F)ccc(O)c3F)c2cc1OC | > 10 µM | 
COc1cc2ncnc(Nc3cccc(O)c3C)c2cc1OC | > 10 µM | 
COc1cc2ncnc(Nc3cccc(O)c3Cl)c2cc1OC | > 10 µM | 
COc1cc2ncnc(Nc3c(F)ccc(O)c3C)c2cc1OC | > 10 µM | > 100 µM
COc1cc2ncnc(Nc3cc(O)c(C)cc3F)c2cc1OC | > 1 µM | 
